# Tests used:
# Format in all cases: in vivo
# [1] = system: pigweed (Amaranthus retroflexus); test: Test C postemergence, plant response rating
# Method in brief: (§1)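 Pre-emergence: seeds sown in loam soil–sand blend or silt loam and sprayed with test chemicals in a non-phytotoxic solvent mixture with surfactant. Post-emergence: plants 2 to 18 cm (1- to 4-leaf stage) in peat-based potting medium, same formulation. Greenhouse 13 to 15 d; visual rating 0 (no effect) to 100 (complete control) versus controls.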
# [2] = system: johnsongrass (Sorghum halepense); test: Test C postemergence, plant response rating; settings: for Plant response rating, Johnsongrass: scale 0 to 100; for Johnsongrass plant response rating: scale 0 to 100 (0 no effect, 100 complete control)
# Method in brief: as §1
# [3] = system: galium (catchweed bedstraw, Galium aparine); test: Test C preemergence, plant response rating
# [4] = system: barnyardgrass (Echinochloa crus-galli); test: Test C preemergence, plant response rating; settings: Preemergence
# [5] = system: johnsongrass (Sorghum halepense); test: Test C preemergence, plant response rating
Compound,"Plant response rating, Johnsongrass ([2]; 16 g ai/ha)","Plant response rating, Johnsongrass ([2]; 31 g ai/ha)",Johnsongrass plant response rating ([2]; 62 g ai/ha),Johnsongrass plant response rating ([2]; 125 g ai/ha),"Plant response rating, Galium ([3]; 16 g ai/ha, scale 0 to 100)","Plant response rating, Galium ([3]; 31 g ai/ha, scale 0 to 100)","Plant response rating, Galium ([3]; 62 g ai/ha, scale of 0 to 100)","Plant response rating, Galium ([3]; 125 g ai/ha, scale of 0 to 100)","Plant response rating, Johnsongrass ([5]; 16 g ai/ha, scale 0 to 100)","Plant response rating, Johnsongrass ([5]; 31 g ai/ha, scale 0 to 100)","Plant response rating, Johnsongrass ([5]; 62 g ai/ha, scale 0 to 100)","Plant response rating, Johnsongrass ([5]; 125 g ai/ha, scale of 0 to 100)",other results
N#Cc1cccc(Oc2ncc(Cl)cn2)c1CCCC(F)(F)F [Compound 72],5,10,10,10,5,75,90,100,5,65,70,100,"Plant response rating, Pigweed ([1]; 16 g ai/ha, scale 0 to 100): 80; Plant response rating, Pigweed ([1]; 31 g ai/ha, scale 0 to 100): 85; Pigweed plant response rating ([1]; 62 g ai/ha, scale 0 to 100 (0 no effect, 100 complete control)): 85; Pigweed plant response rating ([1]; 125 g ai/ha, scale 0 to 100 (0 no effect, 100 complete control)): 100; Plant response rating, Barnyardgrass ([4]; 62 g ai/ha, scale of 0 to 100): 80; Plant response rating, Barnyardgrass ([4]; 125 g ai/ha, scale of 0 to 100): 100; Plant response rating, Barnyardgrass ([4]; 16 g ai/ha, scale 0 to 100): 25; Plant response rating, Barnyardgrass ([4]; 31 g ai/ha, scale 0 to 100): 90"
"N#Cc1cccc(Oc2ncc(Cl)cn2)c1CCCCC(F)(F)F [Compound 73, 3-[(5-chloro-2-pyrimidinyl)oxy]-2-(5,5,5-trifluoropentyl)benzonitrile]",5,10,20,20,5,10,100,100,0,40,80,95,"pest or weed control at 16 g/ha ([1]; Amaranthus retroflexus, post-emergence, 16 g ai/ha, scale 0 to 100): 90%; pest or weed control at 31 g/ha ([1]; Amaranthus retroflexus, post-emergence, 31 g ai/ha, scale 0 to 100): 85%; pest or weed control at 62 g/ha ([1]; Amaranthus retroflexus, post-emergence, 62 g ai/ha, scale 0 to 100 (0 no effect, 100 complete control)): 100%; pest or weed control at 125 g/ha ([1]; Amaranthus retroflexus, post-emergence, 125 g ai/ha, scale 0 to 100 (0 no effect, 100 complete control)): 100%; pest or weed control at 62 g/ha ([4]; Echinochloa crus-galli, pre-emergence, 62 g ai/ha, scale of 0 to 100): 100%; pest or weed control at 125 g/ha ([4]; Echinochloa crus-galli, pre-emergence, 125 g ai/ha, scale of 0 to 100): 100%; pest or weed control at 16 g/ha ([4]; Echinochloa crus-galli, pre-emergence, 16 g ai/ha, scale 0 to 100): 15%; pest or weed control at 31 g/ha ([4]; Echinochloa crus-galli, pre-emergence, 31 g ai/ha, scale 0 to 100): 80%"

# — patent US11053204B2, “Pyrimidinyloxy benzene derivatives as herbicides” (FMC Corporation, priority 2015, dated 2021)
